In brackets after ≈: the same amount, converted by molar mass.

Series [1] can be described thus: Blood concentration and AUC of LVFX after oral administration to rats, alone or with a metal-containing preparation. Particulars: for blood concentration of LVFX after independent administration of the ester versus independent administration of LVFX / blood concentration of LVFX under concomitant use of polyvalent metal-containing antacid: 0-240 minutes.
Description: A cannulation inner tube (Fuji Systems Corporation Ltd., Tokyo) having an internal diameter of 0.5 mm and an outside diameter of 1.0 mm which is used for blood collecting was inserted in the jugular vein of rats on the preceding day before the administration experiment, and the rats were made to abstain from food for 20 hours in an environment where only water can be taken in the animal room.
The polyvalent metal-containing preparation Al(OH)3 was administered in a dose of 30 mg/kg subject.
After administration of the drug, a blood sample was collected through a jugular vein cannulation inner tube in an amount of 200 μL each along the time elapsed (after 0, 15, 30, 45, 60, 90, 120, 180, and 240 minutes) in a 1-mL syringe treated with heparin, the blood was centrifuged for 5 minutes at 12,000 rpm and 4 deg C immediately, and 50 μL of a supernatant was taken to make plasma.
The following procedures were carried out successively: addition of 100 μL of methanol solution containing 10 μmol/L of CPFX as an internal standard substance to 50 μL of plasma, then stirring; centrifuging for 5 minutes at 6,200 rpm; sampling 100 μL of the supernatant with a syringe; filtering the sample solution using Millex (registered trademark)-HV (0.45 micrometer, MILLIPORE, Billerica, Mass., USA). […] The HPLC measurement conditions were as follows; the column used: TSK-GEL ODS-80 Ts (250×4.6 mm, TOSOH Corp., Tokyo), the mobile phase used: 20-mm sodium-phosphate buffer solution (pH 3.0)/acetonitrile=79:21 (v/v). The measurement was carried out using Shimazu SPD-20A Spectrometer detector (Shimadzu, Kyoto) with 280 nm detection wavelength, and flow rate was 1.0 mL/min. The retention times obtained by these conditions were 6.9 minutes for ENX, and 7.2 minutes for CPFX.
The differences of AUCs between 4 groups were computed by performing the multiple comparison by Dunnett's method, and the range of p<0.05 was understood as having a statistical significance.
The nature of series [2]: Rat intestinal everted sac method: intestinal absorption and hydrolysis to LVFX, alone or with AlCl3. The format is in vitro ADME. The settings on record: for drug substance LVFX as a hydrolysis product in the everted intestinal tract: ester; for LVFX concentration generated within the small intestine lumen from the ester alone versus LVFX alone / influence of simultaneous administration of AlCl3 on LVFX generated: incubation 60 minutes; for hydrolysis into LVFX: incubation for 60 minutes, small intestine. As to the method:
1. Glucose 200 mg was dissolved in 100 ml of 20 mM HEPES buffer isotonic sodium chloride solution, and pH is regulated at 7.4 with 5N- or 1N-sodium hydroxide by measuring pH (If pH rises, pH is modulated with 1N-hydrochloric acid.).
1. Similarly in the case of independent administration, glucose 200 mg is dissolved in 100 ml of 20 mM HEPES buffer isotonic sodium chloride solution, and pH is regulated at 7.4 with 5N- or 1N-sodium hydroxide by measuring pH (If pH rises, pH is modulated with 1N-hydrochloric acid.).
2. AlCl3 8.0 mg is dissolved (600 μM).
1. A SD type male rat of 8-week old after the birth is purchased and undergoes quarantine habituation for two days. After fasting for 24 hours, a pentobarbital sodium (50 mg/ml) is injected intraperitoneally in the amount (ml) of: rat weight (g)×0.05/50 (that is, weight (g)×0.001).
2. After the rat sleeps completely, it is incised in the abdomen so as to be observed from the stomach till the bladder, and the intestinal tract is removed from the end of the duodenum to the front 5 cm of the cecum.
3. The intestinal tract is cut off every 10 cm carefully, and all portions are washed with physiological saline (both circumference and inside of intestinal).
4. The intestinal tract is made reversed from the stomach side using a stainless steel tube.
5. The cecum side of the reversed intestinal tract is tied with sutures to make bag-shaped.
6. One (1) ml of the HEPES buffer isotonic sodium chloride solution adjusted is put in from the stomach side of the intestinal tract, and the intestinal tract is tied with a suture.
7. The tied intestinal tract is put in the HEPES buffer isotonic sodium chloride solution cooled upon ice, and is preserved.
2. One (1) ml of the drug solution is taken, and it is diluted with 9 ml of the HEPES buffer isotonic sodium chloride solution 10 times (2 mM).
3. A portion (5 ml) of the solution is further diluted with 95 ml of the HEPES buffer isotonic sodium chloride solution to 20 times (100 μM).
1. Thirty (30) ml of the diluted drug solution is taken to a 50-ml Erlenmeyer flask, and the intestinal tract containing a HEPES buffer isotonic sodium chloride solution is put in.
2. […]
3. The intestinal tract is taken out from the drug solution, and, after flushing and wiping off the drug solution attached to the surroundings of the intestinal tract with the physiological saline, all liquid in the intestinal tract is taken out into the Eppendorf tube.
4. The liquid is centrifuged for 5 minutes at 12,000 rpm.
5. 250 μL of a supernatant liquid is taken as a sample.
The method is the same as the HPLC measurement conditions mentioned above in-vivo experiment.

Series [3] relates to Pseudomonas-aeruginosa ATCC 27853. The series is described as follows: MIC (minimum inhibitory concentration) against Pseudomonas-aeruginosa ATCC 27853. The class given is cell-based. The source says: (§1) The MIC activity unit in the table is μg/mL.
Series [4] relates to Escherichia coli ATCC 25922. In words: MIC against Escherichia coli ATCC 25922. The class given is cell-based. The settings on record: ATCC25922.
Text: as §1

Another series has as its system Enterobacter ATCC 23355. In words: MIC against Enterobacter ATCC 23355. The settings on record: ATCC23355. The format is cell-based.
Text: as §1

The next series has as its system Escherichia coli NIH JC2. In words: MIC against Escherichia coli NIH JC2. The format is cell-based. The settings on record: NIHJC2.
Text: as §1

The test system of series [5] is Pseudomonas-aeruginosa (ATCC27853), Escherichia coli (ATCC25922 and NIH JC2), and Enterobacter (ZTCC23355). The series is described as follows: Comparison of antibacterial activities of LVFX and LVFX-EHE over all tested strains. Particulars: all four strains of Table 11. The format is cell-based.

For the compound `COC(=O)c1cn2c3c(c(N4CCN(C)CC4)c(F)cc3c1=O)OC[C@@H]2C` [LVFX-M, (S)-Methyl-9-fluoro-3-methyl-10-(4-methylpiperazine-1-yl)-7-oxo-3,7-dihydro-2H-[1,4] oxazolino [2,3,4-ij] quinolin-6-carboxylate, reference compound], the “peak of LVFX in blood derived from the ester” value in series [1] (ester administered alone) and in series [1] (ester co-administered with Al(OH)3 30 mg/kg) was “no peak was detected” each time. In addition, the “drug substance LVFX as a hydrolysis product in the everted intestinal tract” value in series [2] (concomitant administration with aluminum chloride) and in series [2] (independent administration alone) was “not detected” throughout.

What is called MIC is the smallest concentration in the dilution series that meets the test's criterion for growth inhibition. A higher MIC goes with weaker potency. `C[C@H]1COc2c(N3CCN(C)CC3)c(F)cc3c(=O)c(C(=O)O)cn1c23` [LVFX, (3S)-9-fluoro-3-methyl-10-(4-methyl-1-piperazinyl)-7-oxo-2,3-dihydro-7H-pyrid [1,2,3-de] [1,4] benzoxazine-6-carboxylic acid, reference compound]: the minimum inhibitory concentration (MIC) in series [3] was 0.5 µg/mL (≈ 1.38 µM); in series [4], ≤ 0.065 µg/mL; against Enterobacter ATCC 23355 it was ≤ 0.065 µg/mL; with Escherichia coli NIH JC2 it was ≤ 0.065 µg/mL. Moreover, in series [2] (LVFX and AlCl3 concomitantly), the “absorption amount with AlCl3 as percent of LVFX administration alone” value is listed as “about 54%”.

In the case of `CCOC(=O)OC(C)OC(=O)c1cn2c3c(c(N4CCN(C)CC4)c(F)cc3c1=O)OC[C@@H]2C` (stereo partly drawn) [LVFX-EHE, Levofloxacin ethoxycarbonyl-1-ethyl hemiacetal-type ester], the “MIC values considered from clinical break points” value in series [5] is given as “non-sensitive to any bacterial strains”. For the same compound, the “antibacterial activity as compared to that of LVFX” value in series [5] (ratio to LVFX) is reported as 1/10. For the same compound, in series [1], the “AUC of LVFX in blood on co-administration with the metal-containing preparation versus LVFX independent administration” value is given as “no significant difference”, the “blood concentration of LVFX after independent administration of the ester versus independent administration of LVFX” value is “Significant differences were not observed” and the “blood concentration of LVFX under concomitant use of polyvalent metal-containing antacid” value was “not influenced”. Further, the MIC in series [3] came out at 8 µg/mL (≈ 16.8 µM). The compound also registered an MIC in series [4] of 0.5 µg/mL (≈ 1.05 µM). This compound came in with an MIC in the series on Enterobacter ATCC 23355 of 2 µg/mL (≈ 4.19 µM). In addition, in series [2], the “LVFX concentration generated within the small intestine lumen from the ester alone versus LVFX alone” value is on record as “no significant difference”, the “influence of simultaneous administration of AlCl3 on LVFX generated” value is listed as “no influence” and the “hydrolysis into LVFX” value is recorded as “completely hydrolyzed”. For the same compound, it took 0.5 µg/mL (≈ 1.05 µM) to inhibit growth against Escherichia coli NIH JC2 (MIC).

Take `CC(C)OC(=O)OC(C)OC(=O)c1cn2c3c(c(N4CCN(C)CC4)c(F)cc3c1=O)OC[C@@H]2C` (mixture of isomers) [LVFX-iPrHE, Levofloxacin isopropoxycarbonyl 1-ethyl hemiacetal-type ester]: in series [1], the “AUC of LVFX in blood on co-administration with the metal-containing preparation versus LVFX independent administration” value is given as “no significant difference”, the “blood concentration of LVFX after independent administration of the ester versus independent administration of LVFX” value is “A significant difference was not found” and the “blood concentration of LVFX under concomitant use of polyvalent metal-containing antacid” value is given as “not influenced”. Besides, in series [2], the “LVFX concentration generated within the small intestine lumen from the ester alone versus LVFX alone” value is listed as “no significant difference”, the “influence of simultaneous administration of AlCl3 on LVFX generated” value is recorded as “no influence” and the “hydrolysis into LVFX” value is “completely hydrolyzed”.

Values taken from patent US20160326165A1, “ALKOXYCARBONYL HEMIACETAL-TYPE ESTER PRODRUG OF PYRIDONE CARBOXYLIC ACID ANTIBACTERIAL DRUG” (KINKI UNIVERSITY, priority 2013, published 2016).
